Results published in patent publication US20240254119A1 (THIRD HARMONIC BIO, INC., priority 2022, published 2024).
Values after ≈ are worked out from the molar mass of the structure shown.

Columns and labels:
Kinetic solubility assay = format: physicochemical; conditions: for Solubility (μM): kinetic solubility, 50 mM PB (pH 7.4), shaken 24 hours at RT
How it was run: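 Test compounds from 10 mM DMSO stock were diluted in 50 mM phosphate buffer, pH 7.4, and shaken for 24 h at RT. After PTFE filtration and centrifugation, filtrate concentration was quantified by UPLC-UV/HPLC-UV against a standard curve.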

CSF-1R = molecular target: T1, CSF-1R (Homo sapiens, UniProt P07333); assay: Caliper biochemical assay, CSF-1R; conditions: Table 6
T1 construct: purchased Invitrogen PV3249 (lot 662393N)
How it was run: (§1)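 Kinase, FAM-labelled peptide substrate, ATP and Mn^2+ incubated with compound for 3 h at 25° C, then quenched with EDTA buffer. Substrate and phosphorylated product separated by microfluidic electrophoresis and quantified by fluorescence intensity; no-enzyme wells define 100% inhibition.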

PDGFRα = molecular target: T2, PDGFRα (Homo sapiens, UniProt P16234); assay: Caliper biochemical assay, PDGFRα; conditions: Table 6
T2 construct: purchased Millipore 14-467 (lot 26321_ACTI)
How it was run: as §1

wtKIT = molecular target: T3, wtKIT (Homo sapiens, UniProt P10721); assay: Caliper biochemical assay, wtKIT; conditions: Table 6, read-out: KIT Biochemical IC50 avg
T3 construct: 1888289AM in the reaction mixtures
How it was run: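 Enzyme (5.0 nM wtKIT), 1 μM FAM-labelled peptide, 400 μM ATP and 10 mM MnCl2 in HEPES pH 7.5 with 1% DMSO, incubated 3 h at 25° C. EDTA quench; substrate and phosphoproduct separated by microfluidic electrophoresis and quantified by fluorescence.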

[1] = molecular target: T4, BCRP (BCRP-MDCKII monolayer) (Homo sapiens, UniProt Q9UNQ0); assay: MDCKII-BCRP bidirectional transport assay; format: in vitro ADME; conditions: for MDCK-BCRP: Papp A-B: apical to basolateral
T4 construct: host or cells: MDCKII (canine kidney) cells
T4 sequence (Q9UNQ0 1-655): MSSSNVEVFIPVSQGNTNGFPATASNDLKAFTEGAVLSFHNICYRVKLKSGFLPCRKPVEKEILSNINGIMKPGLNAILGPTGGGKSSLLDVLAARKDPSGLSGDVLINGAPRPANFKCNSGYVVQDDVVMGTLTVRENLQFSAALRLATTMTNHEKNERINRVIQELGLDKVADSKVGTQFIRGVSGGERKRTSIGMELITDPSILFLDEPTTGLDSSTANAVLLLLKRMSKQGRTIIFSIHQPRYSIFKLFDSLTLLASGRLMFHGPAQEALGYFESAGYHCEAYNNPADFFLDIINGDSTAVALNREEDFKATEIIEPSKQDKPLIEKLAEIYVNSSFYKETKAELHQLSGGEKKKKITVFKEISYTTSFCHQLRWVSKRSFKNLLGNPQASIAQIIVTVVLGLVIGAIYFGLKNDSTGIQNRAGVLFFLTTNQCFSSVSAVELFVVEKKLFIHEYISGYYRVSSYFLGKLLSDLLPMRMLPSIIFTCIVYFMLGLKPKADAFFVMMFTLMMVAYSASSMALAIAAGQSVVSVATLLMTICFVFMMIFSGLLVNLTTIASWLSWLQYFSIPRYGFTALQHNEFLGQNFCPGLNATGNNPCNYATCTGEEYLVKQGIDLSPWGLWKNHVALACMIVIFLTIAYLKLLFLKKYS
How it was run: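 Bidirectional A→B and B→A transport across PreadyPort BCRP-MDCKII monolayers (days 12–15) was run in duplicate for 120 min at 37° C, 5% CO2 after a 15 min preincubation. Compound levels were measured by LC-MS/MS. Papp and recovery were calculated, with efflux ratio indicating transporter engagement.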

T2 sequence (P16234 24-1089): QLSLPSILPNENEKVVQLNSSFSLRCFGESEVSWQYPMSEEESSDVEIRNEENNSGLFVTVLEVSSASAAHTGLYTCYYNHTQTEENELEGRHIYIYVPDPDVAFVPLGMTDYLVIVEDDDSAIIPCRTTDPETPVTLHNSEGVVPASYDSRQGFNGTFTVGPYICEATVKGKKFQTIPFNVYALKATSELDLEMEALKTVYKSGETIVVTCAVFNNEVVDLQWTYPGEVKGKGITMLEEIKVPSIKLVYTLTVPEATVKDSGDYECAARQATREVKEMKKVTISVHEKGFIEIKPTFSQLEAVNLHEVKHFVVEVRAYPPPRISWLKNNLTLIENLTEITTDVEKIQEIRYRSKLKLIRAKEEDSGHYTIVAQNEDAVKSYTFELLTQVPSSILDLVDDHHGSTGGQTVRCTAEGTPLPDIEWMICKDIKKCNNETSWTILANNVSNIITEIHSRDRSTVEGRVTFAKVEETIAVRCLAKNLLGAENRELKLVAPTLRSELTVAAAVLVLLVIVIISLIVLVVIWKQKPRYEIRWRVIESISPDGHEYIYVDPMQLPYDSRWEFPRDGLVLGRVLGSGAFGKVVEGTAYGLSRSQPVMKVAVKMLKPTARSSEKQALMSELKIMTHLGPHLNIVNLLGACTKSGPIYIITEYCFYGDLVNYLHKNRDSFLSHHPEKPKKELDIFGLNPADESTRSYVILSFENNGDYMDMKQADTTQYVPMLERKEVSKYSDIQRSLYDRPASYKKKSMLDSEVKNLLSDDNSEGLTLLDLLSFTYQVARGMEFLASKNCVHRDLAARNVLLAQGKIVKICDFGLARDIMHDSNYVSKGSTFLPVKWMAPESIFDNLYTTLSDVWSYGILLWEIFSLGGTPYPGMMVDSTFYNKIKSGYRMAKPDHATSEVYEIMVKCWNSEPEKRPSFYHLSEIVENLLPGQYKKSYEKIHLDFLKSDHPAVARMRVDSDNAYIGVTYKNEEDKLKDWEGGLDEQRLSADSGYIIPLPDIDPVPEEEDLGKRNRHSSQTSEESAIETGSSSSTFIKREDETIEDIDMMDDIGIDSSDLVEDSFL
T3 sequence (P10721 26-976): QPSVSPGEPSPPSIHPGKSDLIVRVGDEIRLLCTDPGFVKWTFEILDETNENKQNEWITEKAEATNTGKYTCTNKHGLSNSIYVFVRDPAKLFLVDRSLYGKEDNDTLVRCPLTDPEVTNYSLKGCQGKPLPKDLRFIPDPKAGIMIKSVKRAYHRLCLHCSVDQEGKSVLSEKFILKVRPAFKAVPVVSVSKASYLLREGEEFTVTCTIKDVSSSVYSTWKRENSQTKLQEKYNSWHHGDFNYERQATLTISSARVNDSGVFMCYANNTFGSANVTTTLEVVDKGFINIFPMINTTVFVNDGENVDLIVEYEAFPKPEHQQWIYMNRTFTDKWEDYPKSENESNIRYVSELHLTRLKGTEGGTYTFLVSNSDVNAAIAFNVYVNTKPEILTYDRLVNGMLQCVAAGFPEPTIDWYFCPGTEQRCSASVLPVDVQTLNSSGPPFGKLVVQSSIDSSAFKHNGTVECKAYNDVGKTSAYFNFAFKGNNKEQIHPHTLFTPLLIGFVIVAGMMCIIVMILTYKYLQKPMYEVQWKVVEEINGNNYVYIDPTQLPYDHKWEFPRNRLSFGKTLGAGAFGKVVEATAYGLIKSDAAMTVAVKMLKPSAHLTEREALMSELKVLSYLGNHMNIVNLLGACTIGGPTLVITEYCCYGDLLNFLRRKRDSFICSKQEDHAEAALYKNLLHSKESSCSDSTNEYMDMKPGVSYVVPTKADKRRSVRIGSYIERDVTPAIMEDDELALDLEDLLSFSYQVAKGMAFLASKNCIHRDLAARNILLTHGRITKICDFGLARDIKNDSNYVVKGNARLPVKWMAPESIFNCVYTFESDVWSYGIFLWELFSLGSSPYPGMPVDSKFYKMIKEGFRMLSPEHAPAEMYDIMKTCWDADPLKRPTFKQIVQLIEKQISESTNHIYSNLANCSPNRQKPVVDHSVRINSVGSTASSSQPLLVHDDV
T1 sequence (P07333 20-972): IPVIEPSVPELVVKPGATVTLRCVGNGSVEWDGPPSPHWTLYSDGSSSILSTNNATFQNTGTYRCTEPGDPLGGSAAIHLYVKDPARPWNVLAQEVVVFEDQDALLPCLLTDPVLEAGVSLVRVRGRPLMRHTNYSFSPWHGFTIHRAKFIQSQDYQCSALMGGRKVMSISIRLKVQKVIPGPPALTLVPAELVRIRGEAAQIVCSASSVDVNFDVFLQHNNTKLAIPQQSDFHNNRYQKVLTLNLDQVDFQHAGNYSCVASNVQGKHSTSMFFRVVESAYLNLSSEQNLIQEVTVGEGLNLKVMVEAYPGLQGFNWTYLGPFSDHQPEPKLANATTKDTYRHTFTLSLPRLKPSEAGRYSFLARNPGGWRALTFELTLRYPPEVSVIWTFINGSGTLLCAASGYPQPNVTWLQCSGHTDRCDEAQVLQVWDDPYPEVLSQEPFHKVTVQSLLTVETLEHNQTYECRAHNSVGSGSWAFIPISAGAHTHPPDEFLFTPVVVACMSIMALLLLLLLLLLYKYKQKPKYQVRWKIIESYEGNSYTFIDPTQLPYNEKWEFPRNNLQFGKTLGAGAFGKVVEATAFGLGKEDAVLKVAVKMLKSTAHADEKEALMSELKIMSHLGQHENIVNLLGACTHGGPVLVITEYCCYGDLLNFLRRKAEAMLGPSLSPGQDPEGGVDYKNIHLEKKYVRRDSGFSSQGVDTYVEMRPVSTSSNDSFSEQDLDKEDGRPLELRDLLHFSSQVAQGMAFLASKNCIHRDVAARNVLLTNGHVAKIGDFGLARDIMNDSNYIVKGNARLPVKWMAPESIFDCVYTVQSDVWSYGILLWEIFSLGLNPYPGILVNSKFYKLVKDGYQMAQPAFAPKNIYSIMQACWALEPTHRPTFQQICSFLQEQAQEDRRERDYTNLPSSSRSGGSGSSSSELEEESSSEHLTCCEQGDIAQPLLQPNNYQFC

| IC50 (CSF-1R) [nM] | IC50 (PDGFRα) [nM] | IC50 (wtKIT) [nM] | Structure (SMILES) | Solubility (μM) (Kinetic solubility assay) | MDCK-BCRP: Efflux Ratio [1] | MDCK-BCRP: Papp A-B [1] | solubility at 24 h (Kinetic solubility assay; phosphate buffer, pH 7.4, aqueous buffer, kinetic from dmso stock) [µM] |
| --- | --- | --- | --- | --- | --- | --- | --- |
| ≤ 50 | 5000 to 30000 | 50 to 500 | Cc1ccc(-c2noc([C@H]3CCC(=O)N3)n2)cc1NC(=O)c1cnc2ccccn12 (racemic) [Compound I-327] | * (a solubility greater than 50 μM) | 73.2 | 0.28 10^−6 cm/s | – |
| 50 to 500 | 500 to 5000 | ≤ 50 | Cc1ccc(-c2noc(C3(C)CC(F)(F)CN3)n2)cc1NC(=O)c1cnc2ccccn12 (racemic) [Compound I-328] | *** (a solubility greater than 2 μM and less than or equal to 10 μM) | 4.55 | 6.06 10^−6 cm/s | – |
| ≤ 50 | 50 to 500 | ≤ 50 | Cc1ccc(-c2noc(C3CCS(=O)(=O)N3)n2)cc1NC(=O)c1cnc2ccccn12 (racemic) [Compound I-330] | ** (a solubility greater than 10 μM and less than or equal to 50 μM) | 24.9 | 1.28 10^−6 cm/s | – |
| 50 to 500 | 500 to 5000 | ≤ 50 | Cc1ccc(-c2noc(CC(C)O)n2)cc1NC(=O)c1cnc2ccccn12 (racemic) [Compound I-363] | ** (a solubility greater than 10 μM and less than or equal to 50 μM) | 5.58 | 3.24 10^−6 cm/s | – |
| ≤ 50 | 5000 to 30000 | 50 to 500 | Cc1ccc(-c2noc(C(C)O)n2)cc1NC(=O)c1cnc2ccccn12 (racemic) [Compound I-364] | * (a solubility greater than 50 μM) | 9.18 | 2.19 10^−6 cm/s | – |
| – | – | 50 to 500 | Cc1ccc(-c2noc(C3CCS(=O)(=O)C3)n2)cc1NC(=O)c1cnc2ccccn12 (racemic) [Compound I-389] | ** (a solubility greater than 10 μM and less than or equal to 50 μM) | 54.3 | 0.87 10^−6 cm/s | – |
| 50 to 500 | 5000 to 30000 | ≤ 50 | Cc1ccc(-c2noc(C3CCN3)n2)cc1NC(=O)c1cnc2ccccn12 (racemic) [Compound I-394] | * (a solubility greater than 50 μM) | 23.2 | 1.42 10^−6 cm/s | – |
| – | – | – | COc1ccn2c(C(=O)Nc3cc(-c4noc(CC(O)C(F)F)n4)ccc3C)cnc2c1 (single isomer, unassigned) [Compound I-76] | **** (a solubility less than or equal to 2 μM) | – | – | – |
| – | – | – | COCCOCc1ccn2c(C(=O)Nc3cc(-c4noc([C@H]5C[C@@H]5F)n4)ccc3C)cnc2c1 [Compound I-84] | ** (a solubility greater than 10 μM and less than or equal to 50 μM) | 2.28 | 20.7 10^−6 cm/s | – |
| – | – | – | Cc1ccc(-c2noc([C@H]3C[C@@H]3F)n2)cc1NC(=O)c1cnc2cc(OC(F)(F)F)ccn12 [Compound I-87] | **** (a solubility less than or equal to 2 μM) | 0.71 | 30.4 10^−6 cm/s | – |
| – | – | – | COc1ccn2c(C(=O)Nc3cc(-c4noc(CC5CC(F)(F)C5)n4)ccc3C)cnc2c1 [Compound I-91] | **** (a solubility less than or equal to 2 μM) | 1.76 | 1.11 10^−6 cm/s | – |
| – | – | – | CCOc1ccn2c(C(=O)Nc3cc(-c4noc([C@H]5C[C@@H]5F)n4)ccc3C)cnc2c1 [Compound I-93] | **** (a solubility less than or equal to 2 μM) | 1.16 | 21 10^−6 cm/s | – |
| – | – | – | COc1ccn2c(C(=O)Nc3cc(-c4noc(C[C@H](C)O)n4)ccc3C)cnc2c1 [Compound I-94] | **** (a solubility less than or equal to 2 μM) | 8.04 | 5.19 10^−6 cm/s | – |
| – | – | – | COc1ccn2c(C(=O)Nc3cc(-c4noc(C5CC(F)(F)C5)n4)ccc3C)cnc2c1 [Compound I-96] | **** (a solubility less than or equal to 2 μM) | 1.44 | 8.58 10^−6 cm/s | – |
| – | – | – | Cc1ccc(-c2noc([C@H]3C[C@@H]3F)n2)cc1NC(=O)c1cnn2ccccc12 [Compound I-109] | **** (a solubility less than or equal to 2 μM) | 1.12 | 88.7 10^−6 cm/s | – |
| – | – | – | COc1ccc2ncc(C(=O)Nc3cc(-c4noc(C[C@@H](C)O)n4)ccc3C)n2c1 [Compound I-119] | **** (a solubility less than or equal to 2 μM) | – | – | – |
| – | – | – | Cc1ccc(-c2noc(CC(O)C(F)F)n2)cc1NC(=O)c1cnc2ccccn12 (stereo not shown) [Compound I-122] | **** (a solubility less than or equal to 2 μM) | 29.4 | 1.63 10^−6 cm/s | – |
| – | – | ≤ 50 | Cc1ccc(-c2noc(C3(O)CC(F)(F)C3)n2)cc1NC(=O)c1cnc2ccccn12 [Compound I-380] | **** (a solubility less than or equal to 2 μM) | 14.2 | 1.21 10^−6 cm/s | – |

| Structure (SMILES) | IC50 (CSF-1R) [nM] | IC50 (PDGFRα) [nM] | IC50 (wtKIT) [nM] | Solubility (μM) (Kinetic solubility assay) | MDCK-BCRP: Efflux Ratio [1] | MDCK-BCRP: Papp A-B [1] | solubility at 24 h (Kinetic solubility assay; phosphate buffer, pH 7.4, aqueous buffer, kinetic from dmso stock) [µM] |
| --- | --- | --- | --- | --- | --- | --- | --- |
| Cc1ccc(-c2noc(C3CCC(F)C3)n2)cc1NC(=O)c1cnc2ccccn12 (racemic) [Compound I-319] | ≤ 50 | 50 to 500 | ≤ 50 | *** (a solubility greater than 2 μM and less than or equal to 10 μM) | 1.02 | 13.1 10^−6 cm/s | – |
| Cc1ccc(-c2noc(C3CCC3F)n2)cc1NC(=O)c1cnc2ccccn12 (racemic) [Compound I-376] | ≤ 50 | 50 to 500 | ≤ 50 | **** (a solubility less than or equal to 2 μM) | 1.02 | 6.24 10^−6 cm/s | – |
| Cc1ccc(-c2noc(C3CCC3F)n2)cc1NC(=O)c1cnc2ccccn12 (racemic) [Compound I-377] | ≤ 50 | 500 to 5000 | ≤ 50 | *** (a solubility greater than 2 μM and less than or equal to 10 μM) | 0.98 | 7.81 10^−6 cm/s | – |
| COC(=O)N1CC(c2nc(-c3ccc(C)c(NC(=O)c4cnc5cc(O[C@@H](C)CO)ccn45)c3)no2)C1 (single isomer, unassigned) [Compound I-217] | ≤ 50 | 50 to 500 | ≤ 50 | ** (a solubility greater than 10 μM and less than or equal to 50 μM) | 28.1 | 0.86 10^−6 cm/s | – |
| Cc1ccc(-c2noc([C@H]3C[C@@H]3F)n2)cc1NC(=O)c1cnc2cc(COCC(C)(C)O)ccn12 [Compound I-71, N-[5-[5-[(1R,2S)-2-fluorocyclopropyl]-1,2,4-oxadiazol-3-yl]-2-methyl-phenyl]-7-[(2-hydroxy-2-methyl-propoxy)methyl]imidazo[1,2-a]pyridine-3-carboxamide] | ≤ 50 | 500 to 5000 | ≤ 50 | – | – | – | 10 to 50 (≈ 4.8 to 24 µg/mL) |
| Cc1ccc(-c2cnc(N3CC(F)(F)C3)o2)cc1NC(=O)c1cnc2ccccn12 [Compound I-213] | – | – | ≤ 50 | **** (a solubility less than or equal to 2 μM) | 1.42 | 20.6 10^−6 cm/s | – |
| Cc1ccc(-c2noc(CC(C)(C)O)n2)cc1NC(=O)c1cnc2ccccn12 [Compound I-336] | – | – | 50 to 500 | * (a solubility greater than 50 μM) | 19.9 | 1.92 10^−6 cm/s | – |
